Here are results for 30 molecules from patent publication US10428083B2, “Heterocyclylmethyl-thienouracile as antagonists of the adenosine-A2B-receptor” (BAYER PHARMA AKTIENGESELLSCHAFT, priority 2015, dated 2019).

The test concerns the target human adenosine A2b receptor (Homo sapiens (Human), UniProt P29275). The experiment in a line: Cellular in vitro reporter gene test for A2b receptor activity (CHO-K1, CRE-luciferase, NECA stimulation). It is filed as cell-based. Particulars: recombinant CHO-K1 cell line, CRE-luciferase reporter, antagonism of EC50 concentration of NECA; in some cases means of several determinations, rounded to two significant figures; read-out: A2b receptor IC50. Summed up:
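CHO-K1 cells with CRE-driven luciferase; antagonists co-incubated with NECA at its EC50, determined in a pre-experiment on each test day. Luciferase read by luminescence 3 h after NECA addition.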

Molecules are shown by their SMILES.

A word on the IC50: it is the concentration needed to halve the response being measured.

human adenosine A2b receptor, sequence (P29275 whole entry): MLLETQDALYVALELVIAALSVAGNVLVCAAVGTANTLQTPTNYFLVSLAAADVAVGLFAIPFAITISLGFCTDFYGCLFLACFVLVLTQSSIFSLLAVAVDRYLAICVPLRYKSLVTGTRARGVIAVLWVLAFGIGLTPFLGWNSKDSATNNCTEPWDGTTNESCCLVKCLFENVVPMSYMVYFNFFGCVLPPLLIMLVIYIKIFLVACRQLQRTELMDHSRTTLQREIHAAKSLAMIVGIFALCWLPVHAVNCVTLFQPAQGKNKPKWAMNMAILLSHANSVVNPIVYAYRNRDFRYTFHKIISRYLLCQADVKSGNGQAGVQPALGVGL

For the molecule `CCn1c(=O)c2c(C)c(CN3CCNC(=O)C3=O)sc2n(CCOC2CC2)c1=O` [Example 270, 1-[2-(Cyclopropyloxy)ethyl]-6-[(2,3-dioxopiperazin-1-yl)methyl]-3-ethyl-5-methylthieno[2,3-d]pyrimidine-2,4(1H,3H)-dione], the IC50 is 38 nM.

Turning to `CCOCCn1c(=O)n(CC(C)C)c(=O)c2c(C)c(CN3CCNC(=O)C3=O)sc21` [Example 271, 6-[(2,3-Dioxopiperazin-1-yl)methyl]-1-(2-ethoxyethyl)-3-isobutyl-5-methylthieno[2,3-d]pyrimidine-2,4(1H,3H)-dione], the 50% inhibitory concentration (IC50) came out at 47 nM.

For the molecule `Cc1c(CN2CCNC(=O)C2=O)sc2c1c(=O)n(CC(C)(C)C)c(=O)n2CCC(F)(F)F` [Example 272, 3-(2,2-Dimethylpropyl)-6-[(2,3-dioxopiperazin-1-yl)methyl]-5-methyl-1-(3,3,3-trifluoropropyl)thieno[2,3-d]pyrimidine-2,4(1H,3H)-dione], the IC50 came out at 10 nM.

Take `Cc1c(CN2CCNC(=O)C2=O)sc2c1c(=O)n(CC(C)(C)C)c(=O)n2CCCF` [Example 273, 3-(2,2-Dimethylpropyl)-6-[(2,3-dioxopiperazin-1-yl)methyl]-1-(3-fluoropropyl)-5-methylthieno[2,3-d]pyrimidine-2,4(1H,3H)-dione]: the IC50 stood at 19 nM.

On to `COCCn1c(=O)n(CC(C)(C)C)c(=O)c2c(C)c(CN3CCNC(=O)C3=O)sc21` [Example 274, 3-(2,2-Dimethylpropyl)-6-[(2,3-dioxopiperazin-1-yl)methyl]-1-(2-methoxyethyl)-5-methylthieno[2,3-d]pyrimidine-2,4(1H,3H)-dione], for which the IC50 is 24 nM.

On to `Cc1c(CN2CCNC(=O)C2=O)sc2c1c(=O)n(CC(F)F)c(=O)n2C` [Example 275, 3-(2,2-Difluoroethyl)-6-[(2,3-dioxopiperazin-1-yl)methyl]-1,5-dimethylthieno[2,3-d]pyrimidine-2,4(1H,3H)-dione], for which the IC50 came out at 76 nM.

As for `COCCn1c(=O)c2c(C)c(CN3CCNC(=O)C3=O)sc2n(CCC(F)(F)F)c1=O` [Example 276, 6-[(2,3-Dioxopiperazin-1-yl)methyl]-3-(2-methoxyethyl)-5-methyl-1-(3,3,3-trifluoropropyl)thieno[2,3-d]pyrimidine-2,4(1H,3H)-dione], the IC50 stood at 9.9 nM.

`COCCn1c(=O)c2c(C)c(CN3CCNC(=O)C3=O)sc2n(CCCF)c1=O` [Example 277, 6-[(2,3-Dioxopiperazin-1-yl)methyl]-1-(3-fluoropropyl)-3-(2-methoxyethyl)-5-methylthieno[2,3-d]pyrimidine-2,4(1H,3H)-dione]: the IC50 was found to be 68 nM.

Consider `COC(C)(C)Cn1c(=O)c2c(C)c(CN3CCNC(=O)C3=O)sc2n(CCC(F)(F)F)c1=O` [Example 279, 6-[(2,3-Dioxopiperazin-1-yl)methyl]-3-(2-methoxy-2-methylpropyl)-5-methyl-1-(3,3,3-trifluoropropyl)thieno[2,3-d]pyrimidine-2,4(1H,3H)-dione], for which the IC50 is 20 nM.

`COC(C)(C)Cn1c(=O)c2c(C)c(CN3CCNC(=O)C3=O)sc2n(CCCF)c1=O` [Example 280, 6-[(2,3-Dioxopiperazin-1-yl)methyl]-1-(3-fluoropropyl)-3-(2-methoxy-2-methylpropyl)-5-methylthieno[2,3-d]pyrimidine-2,4(1H,3H)-dione]: the IC50 was 82 nM.

Take `COCCn1c(=O)n(CC(C)(C)OC)c(=O)c2c(C)c(CN3CCNC(=O)C3=O)sc21` [Example 281, 6-[(2,3-Dioxopiperazin-1-yl)methyl]-1-(2-methoxyethyl)-3-(2-methoxy-2-methylpropyl)-5-methylthieno[2,3-d]pyrimidine-2,4(1H,3H)-dione]: the IC50 came to 46 nM.

As to `Cc1c(Cn2[nH]ccc2=O)sc2c1c(=O)n(CC(F)(F)F)c(=O)n2CCC(F)(F)F` [Example 282, 5-Methyl-6-[(5-oxo-2,5-dihydro-1H-pyrazol-1-yl)methyl]-3-(2,2,2-trifluoroethyl)-1-(3,3,3-trifluoropropyl)thieno[2,3-d]pyrimidine-2,4(1H,3H)-dione], the IC50 stood at 30 nM.

With `COCCn1c(=O)n(CC(F)(F)F)c(=O)c2c(C)c(Cn3[nH]ccc3=O)sc21` [Example 283, 1-(2-Methoxyethyl)-5-methyl-6-[(5-oxo-2,5-dihydro-1H-pyrazol-1-yl)methyl]-3-(2,2,2-trifluoroethyl)thieno[2,3-d]pyrimidine-2,4(1H,3H)-dione], the IC50 is 79 nM.

Take `COCCn1c(=O)c2c(C)c(Cn3[nH]ccc3=O)sc2n(CCC(F)(F)F)c1=O` [Example 287, 3-(2-Methoxyethyl)-5-methyl-6-[(5-oxo-2,5-dihydro-1H-pyrazol-1-yl)methyl]-1-(3,3,3-trifluoropropyl)thieno[2,3-d]pyrimidine-2,4(1H,3H)-dione]: the IC50 was determined as 63 nM.

Turning to `COCCn1c(=O)c2c(C)c(Cn3[nH]ccc3=O)sc2n(CCOC)c1=O` [Example 288, 1,3-Bis(2-methoxyethyl)-5-methyl-6-[(5-oxo-2,5-dihydro-1H-pyrazol-1-yl)methyl]thieno[2,3-d]pyrimidine-2,4(1H,3H)-dione], the IC50 turned out to be 140 nM.

Take `CCn1c(=O)c2c(C)c(CN3CCNC3=S)sc2n(CF)c1=O` [Example 292, 3-Ethyl-1-(fluoromethyl)-5-methyl-6-[(2-thioxoimidazolidin-1-yl)methyl]thieno[2,3-d]pyrimidine-2,4(1H,3H)-dione]: the IC50 came out at 8.3 nM.

For the molecule `CCn1c(=O)c2c(C)c(CN3CCNC3=S)sc2n(CCOC2CCCC2)c1=O` [Example 293, 1-[2-(Cyclopentyloxy)ethyl]-3-ethyl-5-methyl-6-[(2-thioxoimidazolidin-1-yl)methyl]thieno[2,3-d]pyrimidine-2,4(1H,3H)-dione], the IC50 turned out to be 120 nM.

In the case of `CCSCCn1c(=O)n(CC)c(=O)c2c(C)c(CN3CCNC3=S)sc21` [Example 294, 3-Ethyl-1-[2-(ethylsulphanyl)ethyl]-5-methyl-6-[(2-thioxoimidazolidin-1-yl)methyl]thieno[2,3-d]pyrimidine-2,4(1H,3H)-dione], the IC50 stood at 20 nM.

Take `CCn1c(=O)c2c(C)c(CN3CCNC3=S)sc2n(CCS(C)(=O)=O)c1=O` [Example 295, 3-Ethyl-5-methyl-1-[2-(methylsulphonyl)ethyl]-6-[(2-thioxoimidazolidin-1-yl)methyl]thieno[2,3-d]pyrimidine-2,4(1H,3H)-dione]: the IC50 is 220 nM.

In the case of `CCn1c(=O)c2c(C)c(CN3CCNC3=S)sc2n(CCCOC)c1=O` [Example 296, 3-Ethyl-1-(3-methoxypropyl)-5-methyl-6-[(2-thioxoimidazolidin-1-yl)methyl]thieno[2,3-d]pyrimidine-2,4(1H,3H)-dione], the IC50 is 16 nM.

Turning to `Cc1c(CN2CCNC2=S)sc2c1c(=O)n(C(C)C)c(=O)n2C` [Example 297, 3-Isopropyl-1,5-dimethyl-6-[(2-thioxoimidazolidin-1-yl)methyl]thieno[2,3-d]pyrimidine-2,4(1H,3H)-dione], the IC50 came out at 17 nM.

For `Cc1c(CN2CCNC2=S)sc2c1c(=O)n(C(C)C)c(=O)n2CCCF` [Example 298, 1-(3-Fluoropropyl)-3-isopropyl-5-methyl-6-[(2-thioxoimidazolidin-1-yl)methyl]thieno[2,3-d]pyrimidine-2,4(1H,3H)-dione], the IC50 came out at 2.4 nM.

Consider `CCOCCn1c(=O)c2c(C)c(CN3CCNC3=S)sc2n(CCC(F)(F)F)c1=O` [Example 301, 3-(2-Ethoxyethyl)-5-methyl-6-[(2-thioxoimidazolidin-1-yl)methyl]-1-(3,3,3-trifluoropropyl)thieno[2,3-d]pyrimidine-2,4(1H,3H)-dione], for which the IC50 is 6.5 nM.

With `CCOCCn1c(=O)c2c(C)c(CN3CCNC3=S)sc2n(CCOC)c1=O` [Example 302, 3-(2-Ethoxyethyl)-1-(2-methoxyethyl)-5-methyl-6-[(2-thioxoimidazolidin-1-yl)methyl]thieno[2,3-d]pyrimidine-2,4(1H,3H)-dione], the IC50 was determined as 14 nM.

Regarding `Cc1c(CN2CCN(C(C)C)C2=S)sc2c1c(=O)n(CC(C)C)c(=O)n2CCCF` [Example 304, 1-(3-Fluoropropyl)-3-isobutyl-6-[(3-isopropyl-2-thioxoimidazolidin-1-yl)methyl]-5-methylthieno[2,3-d]pyrimidine-2,4(1H,3H)-dione], the IC50 came to 73 nM.

Take `Cc1c(CN2CCN(C(C)C)C2=S)sc2c1c(=O)n(CC(F)(F)F)c(=O)n2C` [Example 305, 6-[(3-Isopropyl-2-thioxoimidazolidin-1-yl)methyl]-1,5-dimethyl-3-(2,2,2-trifluoroethyl)thieno[2,3-d]pyrimidine-2,4(1H,3H)-dione]: the IC50 was 140 nM.

As for `Cc1c(CN2CCN(C)C2=S)sc2c1c(=O)n(CC(F)(F)F)c(=O)n2CCC(F)(F)F` [Example 306, 5-Methyl-6-[(3-methyl-2-thioxoimidazolidin-1-yl)methyl]-3-(2,2,2-trifluoroethyl)-1-(3,3,3-trifluoropropyl)thieno[2,3-d]pyrimidine-2,4(1H,3H)-dione], the IC50 stood at 5.9 nM.

Turning to `CCn1c(=O)c2c(C)c(CN3CCNC3=O)sc2n(CF)c1=O` [Example 307, 3-Ethyl-1-(fluoromethyl)-5-methyl-6-[(2-oxoimidazolidin-1-yl)methyl]thieno[2,3-d]pyrimidine-2,4(1H,3H)-dione], the half-inhibitory concentration (IC50) was determined as 8.1 nM.

Regarding `CCn1c(=O)c2c(C)c(CN3CCNC3=O)sc2n(CCOC2CCCC2)c1=O` [Example 308, 1-[2-(Cyclopentyloxy)ethyl]-3-ethyl-5-methyl-6-[(2-oxoimidazolidin-1-yl)methyl]thieno[2,3-d]pyrimidine-2,4(1H,3H)-dione], the IC50 worked out at 140 nM.

Regarding `CCSCCn1c(=O)n(CC)c(=O)c2c(C)c(CN3CCNC3=O)sc21` [Example 309, 3-Ethyl-1-[2-(ethylsulphanyl)ethyl]-5-methyl-6-[(2-oxoimidazolidin-1-yl)methyl]thieno[2,3-d]pyrimidine-2,4(1H,3H)-dione], the IC50 amounted to 36 nM.
